This is an account of results in publication PMC3724473 (Biosensors & bioelectronics, 2012).

In assay [1] the target is T1, CotA / bilirubin oxidase (BOD) from Bacillus pumilus (Bacillus pumilus, UniProt A8FAG9). Description: spectrophotometric oxidation at […] nm, Michaelis-Menten fit. The format is biochemical. The note with it: optimal pH (assay pH 6.8), 37 °C, McIlvaine citrate-phosphate buffer.
Assay [2] concerns the target T1, CotA / bilirubin oxidase (BOD) from Bacillus pumilus. Put plainly: spectrophotometric at […] nm. The format is biochemical. Conditions: optimal pH (assay pH 7.2, 50 mM sodium phosphate), 37 °C.

Each structure is given as a SMILES string.

Take `COc1cccc(OC)c1O` [2,6-DMP, 2,6-dimethoxyphenol]: in assay [1], the Michaelis constant (Km) was determined as 822 µM.

Regarding `C=CC1=C(C)/C(=C/c2[nH]c(Cc3[nH]c(/C=C4\NC(=O)C(C)=C4C=C)c(C)c3CCC(=O)O)c(CCC(=O)O)c2C)NC1=O` [unconjugated bilirubin], the Km in assay [2] is 22 µM.
